Test systems include OVCAR-4; K562; HCC 2998; NCI-H460; SK-OV-3; LOX IMVI; UACC-62; EKVX; U-251; MOLT-4; HCT-116; SK-MEL-2; A498; TK-10; RXF 393; SR; SK-MEL-5; MDA-MB-435; MCF7.
What all share (assay): DTP human tumour cell line panel, 48 h

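Compound exposure: 48 hours, 5 concentrations, 96-well plates. At the GI50, growth is halved.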 The source made the active and inactive calls. Cut-off read from the data, not from the text of the source: active = GI50 up to about 1.1 µM and inactive = higher.

For the compound `O/N=C1\CCCCC1C(NO)c1ccccc1` (stereo not drawn), the GI50 with OVCAR-4, in the experiment with K562, in the experiment with HCC 2998, in the experiment with NCI-H460, in the experiment on SK-OV-3 and in the experiment on LOX IMVI was > 100 µM (inactive) each time. The GI50 (in general, the concentration giving 50% growth inhibition) was > 100 µM (inactive) with UACC-62; > 100 µM (inactive) with EKVX; > 100 µM (inactive) in the experiment with U-251; 69.3 µM (inactive) in the experiment with MOLT-4; > 100 µM (inactive) with HCT-116; > 100 µM (inactive) with SK-MEL-2. Further, the GI50 in the experiment with A498, in the experiment on TK-10 and in the experiment on RXF 393 was > 100 µM (inactive) in each case.
For the compound `O=C(Cc1nc2ccccc2o1)C(=O)Nc1cccc(Cl)c1`, the GI50 with OVCAR-4, with K562, in the experiment with HCC 2998, in the experiment with SR, in the experiment on NCI-H460 and in the experiment on SK-OV-3 was > 100 µM (inactive) in each case. Also, the GI50 in the experiment on UACC-62, in the experiment on EKVX, with U-251, with MOLT-4, with HCT-116 and with SK-MEL-2 was > 100 µM (inactive) throughout. Moreover, the GI50 with A498, in the experiment with TK-10 and in the experiment on RXF 393 was > 100 µM (inactive) throughout.
Consider `COC(=O)/C(=N\NC(N)=O)C(C#N)c1ccccc1` (stereo not drawn), for which the GI50 in the experiment on OVCAR-4, in the experiment on K562, in the experiment on HCC 2998, in the experiment with NCI-H460, in the experiment on SK-OV-3 and in the experiment with LOX IMVI was > 100 µM (inactive) each time. Also, the GI50 with UACC-62, in the experiment on EKVX, in the experiment on U-251, in the experiment with MOLT-4, in the experiment with HCT-116 and in the experiment on SK-MEL-2 was > 100 µM (inactive) throughout. Also, the GI50 with A498, in the experiment on TK-10 and in the experiment on RXF 393 was > 100 µM (inactive) throughout.
Take `CC1(C)CC(=O)C(/C(=N/NC(=S)NN)C(=O)Nc2nc3ccc([N+](=O)[O-])cc3s2)C(=O)C1`: the GI50 is > 100 µM (inactive) with OVCAR-4; 62.1 µM (inactive) in the experiment with K562; > 100 µM (inactive) in the experiment with HCC 2998; > 100 µM (inactive) in the experiment on SR; > 100 µM (inactive) with NCI-H460; > 100 µM (inactive) in the experiment on SK-OV-3. Besides, the GI50 with LOX IMVI was > 100 µM (inactive); in the experiment with SK-MEL-5 it was > 100 µM (inactive); in the experiment on UACC-62 it was > 100 µM (inactive); in the experiment with EKVX it was > 100 µM (inactive); in the experiment with U-251, > 100 µM (inactive); in the experiment with MOLT-4 it was 55.1 µM (inactive). Further, the GI50 in the experiment with HCT-116, in the experiment with SK-MEL-2, with A498, with TK-10 and with RXF 393 was > 100 µM (inactive) throughout.
With `Brc1ccc2c(C3CN[C@@H](c4c[nH]c5cc(Br)ccc45)CN3)c[nH]c2c1` (stereo partly drawn), the GI50 in the experiment on OVCAR-4 was 3.31 µM (inactive); with K562, 1.65 µM (inactive); with HCC 2998, 2 µM (inactive); in the experiment on SR, 0.968 µM (active); in the experiment with NCI-H460, 1.3 µM (inactive); with SK-OV-3, 6.14 µM (inactive). Besides, the GI50 with LOX IMVI was 2.61 µM (inactive); in the experiment on SK-MEL-5, 3.67 µM (inactive); with UACC-62 it was 4.37 µM (inactive); with EKVX, 8.97 µM (inactive); with U-251, 5.37 µM (inactive); in the experiment with MOLT-4, 1.44 µM (inactive). Also, the GI50 with HCT-116 is 1.69 µM (inactive); in the experiment on SK-MEL-2 it was 3.02 µM (inactive); in the experiment with A498 it was 1.79 µM (inactive); in the experiment on TK-10, 8.04 µM (inactive); in the experiment on RXF 393 it was 1.55 µM (inactive).
On to `Clc1ccc(-c2nnc3c4nnc(-c5ccc(Cl)cc5Cl)n4c4ccccc4n23)c(Cl)c1`, for which the GI50 in the experiment with OVCAR-4, with K562, in the experiment with HCC 2998, in the experiment on NCI-H460, in the experiment on SK-OV-3 and with LOX IMVI was > 100 µM (inactive) throughout. Further, the GI50 in the experiment on SK-MEL-5, in the experiment on UACC-62, in the experiment with EKVX, with U-251, in the experiment on MOLT-4 and with HCT-116 was > 100 µM (inactive) throughout. In addition, the GI50 with SK-MEL-2, in the experiment on A498, with TK-10 and with RXF 393 was > 100 µM (inactive) in each case.
As to `CC(=O)Oc1ccc(N2C(=O)C3c4[nH]c5ccccc5c4C4CCC(C(C)(C)C)CC4C3C2=O)cc1` (stereo not drawn), the GI50 with K562 is 3.26 µM (inactive); with HCC 2998 it was 2.68 µM (inactive); in the experiment with MDA-MB-435, 10.4 µM (inactive); with NCI-H460, 2.55 µM (inactive); in the experiment with SK-OV-3, 10.8 µM (inactive); in the experiment on LOX IMVI it was 4.41 µM (inactive). Also, the GI50 was 2.84 µM (inactive) with SK-MEL-5; 6.08 µM (inactive) with UACC-62; 3.07 µM (inactive) in the experiment with EKVX; 3.27 µM (inactive) with U-251; 10 µM (inactive) with MOLT-4; 2.15 µM (inactive) with HCT-116. Also, the GI50 with SK-MEL-2 is 5.13 µM (inactive); in the experiment with A498, 4.11 µM (inactive); in the experiment on TK-10, 3.33 µM (inactive); with RXF 393, 2.46 µM (inactive); in the experiment on MCF7 it was 2.88 µM (inactive).
Take `CCOC(=O)C(Cc1c(C=O)[nH]c2ccccc12)(NC(=O)c1ccccc1)C(=O)OCC`: the GI50 with K562 is 6.46 µM (inactive); in the experiment with HCC 2998 it was 12.2 µM (inactive); in the experiment with SR it was > 100 µM (inactive); in the experiment on NCI-H460, 24.3 µM (inactive); with SK-OV-3, 23.9 µM (inactive); in the experiment with SK-MEL-5, 11.4 µM (inactive). In addition, the GI50 with EKVX is 18.5 µM (inactive); in the experiment on U-251 it was 11.6 µM (inactive); in the experiment with MOLT-4, 6.65 µM (inactive); with SK-MEL-2, 16.5 µM (inactive); with TK-10, 22.4 µM (inactive); with RXF 393, 11 µM (inactive).
For the compound `COc1ccc(/C=C2\N=C(c3ccccc3)OC2=O)c(OCc2ccccc2)c1`, the GI50 in the experiment with OVCAR-4 was 22.1 µM (inactive); in the experiment with K562, 32.1 µM (inactive); in the experiment on HCC 2998, > 100 µM (inactive); in the experiment on SR it was 21.7 µM (inactive); with NCI-H460, 53 µM (inactive); with LOX IMVI it was 39.3 µM (inactive). The GI50 in the experiment with SK-MEL-5 was 19.8 µM (inactive); in the experiment on UACC-62, 19.7 µM (inactive); with EKVX, > 100 µM (inactive); with MOLT-4, 14.1 µM (inactive); with HCT-116, 49.3 µM (inactive); with A498 it was 16.3 µM (inactive).
For `CC(C)=CCC/C(C)=C/Cc1c(O)c(C)cc2c1[nH]c1cc(O)ccc12`, the GI50 in the experiment with OVCAR-4, in the experiment on K562, in the experiment on HCC 2998, with SR, in the experiment on NCI-H460 and in the experiment on SK-OV-3 was > 25 µM (inactive) each time. For the same compound, the GI50 in the experiment on LOX IMVI, in the experiment with SK-MEL-5, with UACC-62, in the experiment on U-251, in the experiment with MOLT-4 and in the experiment with HCT-116 was > 25 µM (inactive) throughout. Further, the GI50 in the experiment on SK-MEL-2, with TK-10 and in the experiment with RXF 393 was > 25 µM (inactive) in each case.
For `O=C(C/C(=N\NC(=O)C[n+]1ccccc1)C(=O)Nc1nc2ccc([N+](=O)[O-])cc2s1)CC(c1ccccc1)c1c(O)c2ccccc2oc1=O` (stereo not drawn), the GI50 in the experiment with OVCAR-4, in the experiment with K562, with HCC 2998, in the experiment on SR, with NCI-H460 and in the experiment with SK-OV-3 was > 100 µM (inactive) throughout. Also, the GI50 in the experiment with SK-MEL-5, in the experiment on UACC-62, in the experiment on EKVX, in the experiment with MOLT-4, in the experiment with HCT-116 and with SK-MEL-2 was > 100 µM (inactive) throughout. Moreover, the values for the GI50 with A498, in the experiment with TK-10 and with RXF 393 were 46.3 µM (inactive), > 100 µM (inactive) and > 100 µM (inactive), respectively.
With `COC(=O)C1=Cc2cc3c(cc2[C@H](c2ccc4c(c2)OCO4)C1C(=O)OC)OCO3` (stereo partly drawn), the GI50 with OVCAR-4 is 61.9 µM (inactive); with K562, 53.5 µM (inactive); with HCC 2998, > 100 µM (inactive); with SR it was 59.4 µM (inactive); in the experiment with NCI-H460, 89.9 µM (inactive); in the experiment on SK-OV-3, > 100 µM (inactive). Besides, the GI50 is > 100 µM (inactive) in the experiment on LOX IMVI; 46.6 µM (inactive) in the experiment with SK-MEL-5; 58.6 µM (inactive) with UACC-62; 46.8 µM (inactive) in the experiment with EKVX; 61.4 µM (inactive) in the experiment with U-251; 35.6 µM (inactive) in the experiment with MOLT-4. The GI50 in the experiment on HCT-116 was 41.7 µM (inactive); in the experiment on A498, 0.0745 µM (active); in the experiment on TK-10 it was > 100 µM (inactive); in the experiment on RXF 393, 80.4 µM (inactive).
For `Cc1c2ccccc2cc2ccc3oc([N+](=O)[O-])cc3c12`, the GI50 is > 100 µM (inactive) with OVCAR-4; > 100 µM (inactive) in the experiment with K562; > 100 µM (inactive) in the experiment on HCC 2998; 6.19 µM (inactive) with NCI-H460; > 100 µM (inactive) in the experiment with SK-OV-3; > 100 µM (inactive) with LOX IMVI. For the same compound, the GI50 with SK-MEL-5 is 3.18 µM (inactive); in the experiment on UACC-62, > 100 µM (inactive); in the experiment with EKVX, 81.7 µM (inactive); in the experiment with U-251, > 100 µM (inactive); in the experiment on MOLT-4, > 100 µM (inactive); in the experiment with HCT-116, > 100 µM (inactive). Further, the GI50 in the experiment with SK-MEL-2 is 5.47 µM (inactive); with A498, 5.6 µM (inactive); in the experiment on TK-10, > 100 µM (inactive); with RXF 393, > 100 µM (inactive).

The values are drawn from ChEMBL document CHEMBL1201862, “PubChem BioAssay data set” (2004).
